According to US8053418B2, “Anti-penicillin resistant pneumococci agent and novel 16-membered macrolide derivative” (Microbial Chemistry Research Foundation, priority 2005, dated 2011):
Values after ≈ are worked out from the molar mass of the structure shown. Values joined by “and” are separate entries in the source; they are usually repeats but may differ in a detail not shown here. Identical values can stand only once. “Also recorded” adds a separate entry of the source. Like-named read-outs stand apart in the source and are kept apart here.

How the values were obtained:
[1] = tested on: Streptococcus pneumoniae IMC B-1233 (PRSP); assay: Antimicrobial activity test (MIC), clinical isolate IMC B-1233; type: cell-based
Description: (§1) Using Streptococcus pneumoniae that include clinical isolates of PRSP, the antimicrobial activity of each of the prepared anti-PRSP agents was measured in accordance with the “determination method of minimum inhibitory concentration of drug against bacteria” of Japanese Society of Chemotherapy (for re-revised version, see Chemotherapy 29; 76, 1981).
(§2) 11 test strains of Streptococcus pneumoniae including IMC B-0919 are all clinical isolates, of which 2 strains, IMC B-0921 and IMC B-1229, are classified into penicillin susceptible Streptococcus pneumoniae (PSSP) and the remaining 9 strains are classified into penicillin-resistant Streptococcus pneumoniae (PRSP) (according to NCCLS standards).

[2] = tested on: Streptococcus pneumoniae IMC B-1229 (PSSP); assay: Antimicrobial activity test (MIC), clinical isolate IMC B-1229; type: cell-based
Description: as §1, §2

[3] = tested on: Streptococcus pneumoniae IMC B-0919 (PRSP); assay: Antimicrobial activity test (MIC), clinical isolate IMC B-0919; type: cell-based
Description: as §1, §2

[4] = tested on: penicillin-resistant Streptococcus pneumoniae (PRSP); assay: Anti-PRSP activity, overall statements on the clinical isolates; type: cell-based; details: statement in words
Description: as §1, §2
For the compounds of the present invention, MKT-1011, MKT-2003, MKT-3002 and MKT-3003, the antimicrobial activity was measured in the same way as in Experimental Example 1.

[5] = tested on: Streptococcus pneumoniae IMC B-0920 (PRSP); assay: Antimicrobial activity test (MIC), clinical isolate IMC B-0920; type: cell-based
Description: as §1, §2

[6] = tested on: Streptococcus pneumoniae IMC B-1235 (PRSP); assay: Antimicrobial activity test (MIC), clinical isolate IMC B-1235; type: cell-based
Description: as §1, §2

[7] = tested on: Streptococcus pneumoniae IMC B-1231 (PRSP); assay: Antimicrobial activity test (MIC), clinical isolate IMC B-1231; type: cell-based
Description: as §1, §2

[8] = tested on: Streptococcus pneumoniae IMC B-0921 (PSSP); assay: Antimicrobial activity test (MIC), clinical isolate IMC B-0921; type: cell-based
Description: as §1, §2

[9] = tested on: Streptococcus pneumoniae IMC B-1236 (PRSP); assay: Antimicrobial activity test (MIC), clinical isolate IMC B-1236; type: cell-based
Description: as §1, §2

[10] = tested on: Streptococcus pneumoniae IMC B-0922 (PRSP); assay: Antimicrobial activity test (MIC), clinical isolate IMC B-0922; type: cell-based
Description: as §1, §2

[11] = tested on: Streptococcus pneumoniae IMC B-1234 (PRSP); assay: Antimicrobial activity test (MIC), clinical isolate IMC B-1234; type: cell-based
Description: as §1, §2

[12] = tested on: Streptococcus pneumoniae IMC B-1232 (PRSP); assay: Antimicrobial activity test (MIC), clinical isolate IMC B-1232; type: cell-based
Description: as §1, §2

[13] = tested on: general Gram-positive bacteria and Gram-negative bacteria; details: Non-Patent Literatures 1 and 2, Patent Literature 1; cited from earlier work
[14] = PRSP clinical isolate IMC B-1233
[15] = Streptococcus pneumoniae IMC B-1233, PRSP
[16] = PSSP clinical isolate IMC B-1229
[17] = Streptococcus pneumoniae IMC B-1229, PSSP
[18] = PRSP clinical isolate IMC B-0919
[19] = Streptococcus pneumoniae IMC B-0919, PRSP
[20] = PRSP clinical isolate IMC B-0920
[21] = Streptococcus pneumoniae IMC B-0920, PRSP
[22] = PRSP clinical isolate IMC B-1235
[23] = Streptococcus pneumoniae IMC B-1235, PRSP
[24] = PRSP clinical isolate IMC B-1231
[25] = Streptococcus pneumoniae IMC B-1231, PRSP
[26] = PSSP clinical isolate IMC B-0921
[27] = Streptococcus pneumoniae IMC B-0921, PSSP
[28] = PRSP clinical isolate IMC B-1236
[29] = Streptococcus pneumoniae IMC B-1236, PRSP
[30] = PRSP clinical isolate IMC B-0922
[31] = Streptococcus pneumoniae IMC B-0922, PRSP
[32] = PRSP clinical isolate IMC B-1234
[33] = Streptococcus pneumoniae IMC B-1234, PRSP
[34] = PRSP clinical isolate IMC B-1232
[35] = Streptococcus pneumoniae IMC B-1232, PRSP

| SMILES | MIC [1, 14] [µg/mL] | MIC [2, 16] [µg/mL] | MIC [3, 18] [µg/mL] | MIC [3, 19] | anti-PRSP activity [4] | MIC [5, 20] | MIC [5, 21] [µg/mL] | MIC [6, 22] | MIC [6, 23] | MIC [7, 24] [µg/mL] | MIC [7, 25] | MIC [8, 26] [µg/mL] | MIC [9, 28] | MIC [9, 29] | MIC [10, 30] [µg/mL] | MIC [10, 31] | MIC [11, 32] [µg/mL] | MIC [11, 33] | MIC [12, 34] [µg/mL] | further results |
| --- | --- | --- | --- | --- | --- | --- | --- | --- | --- | --- | --- | --- | --- | --- | --- | --- | --- | --- | --- | --- |
| CCC1OC(=O)CCC(C)C(OC2OC(C)CC(N(C)C)C2O)C(CC=O)CC(C)C(=O)C=CC(C)=CC1CN(C)Cc1ccccc1 (stereo not drawn) [MKT-3002] | 0.1 (≈ 0.149 µM) | 0.1 (≈ 0.149 µM) | 0.1 (≈ 0.149 µM) | 0.1 µg/mL (≈ 0.149 µM) | high anti-PRSP activity | 0.2 µg/mL (≈ 0.299 µM) | 0.2 (≈ 0.299 µM) | 3.13 µg/mL (≈ 4.68 µM) | 3.13 µg/mL (≈ 4.68 µM) | 50 (≈ 74.7 µM) | 50 µg/mL (≈ 74.7 µM) | 0.1 (≈ 0.149 µM) | 3.13 µg/mL (≈ 4.68 µM) | 3.13 µg/mL (≈ 4.68 µM) | 0.1 (≈ 0.149 µM) | 0.1 µg/mL (≈ 0.149 µM) | <0.1 | <0.1 µg/mL | <0.025 | MIC [1, 15]: 0.1 µg/mL (≈ 0.149 µM); MIC [2, 17]: 0.1 µg/mL (≈ 0.149 µM); MIC [8, 27]: 0.1 µg/mL (≈ 0.149 µM); MIC [12, 35]: <0.025 µg/mL |
| CCC1OC(=O)CCC(C)C(OC2OC(C)CC(N(C)C)C2O)C(CC=O)CC(C)C(=O)C=CC(C)=CC1CSc1ncccn1 (stereo not drawn) [MKT-3802] | <0.025 | 0.05 (≈ 0.0758 µM) | <0.025 |  | high anti-PRSP activity | <0.025 µg/mL |  | 12.5 µg/mL (≈ 18.9 µM) |  | 0.39 (≈ 0.591 µM) |  | 0.05 (≈ 0.0758 µM) | 12.5 µg/mL (≈ 18.9 µM) |  | 0.05 (≈ 0.0758 µM) |  | 0.025 (≈ 0.0379 µM) |  | <0.025 |  |
| CCC1OC(=O)CCC(C)C(OC2OC(C)CC(N(C)C)C2O)C(CC=O)CC(C)C(=O)C=CC(C)=CC1CNC(=O)c1ccccc1 (stereo not drawn) [MKT-3202] | <0.025 | <0.025 | 0.2 (≈ 0.299 µM) |  | high anti-PRSP activity | 0.2 µg/mL (≈ 0.299 µM) |  | 0.1 µg/mL (≈ 0.15 µM) |  | 0.05 (≈ 0.0748 µM) |  | <0.025 | 6.25 µg/mL (≈ 9.34 µM) |  | <0.025 |  | <0.025 |  | 0.1 (≈ 0.15 µM) |  |
| CCC1OC(=O)CCC(C)C(OC2OC(C)CC(N(C)C)C2O)C(CC=O)CC(C)C(=O)C=CC(C)=CC1COC(C)=O (stereo not drawn) [MKT-2002] | 0.05 (≈ 0.0823 µM) | 0.1 (≈ 0.165 µM) | 0.1 (≈ 0.165 µM) |  | high anti-PRSP activity | 0.05 µg/mL (≈ 0.0823 µM) |  | 25 µg/mL (≈ 41.1 µM) |  | 0.39 (≈ 0.642 µM) |  | 0.1 (≈ 0.165 µM) | 12.5 µg/mL (≈ 20.6 µM) |  | 0.1 (≈ 0.165 µM) |  | 0.1 (≈ 0.165 µM) |  | 0.05 (≈ 0.0823 µM) |  |
| CC[C@H]1OC(=O)CC[C@H](C)[C@@H](O[C@@H]2O[C@H](C)C[C@H](N(C)C)[C@H]2O)[C@@H](CC=O)C[C@@H](C)C(=O)/C=C/C(C)=C/[C@@H]1CO [DDMT, 3,4′-dideoxymycaminosyltylonolide, reference compound] |  |  |  | 0.39 µg/mL and 0.20 µg/mL |  | 0.2 µg/mL and 0.39 µg/mL and 0.20 µg/mL | 0.39 (≈ 0.689 µM) | >50 µg/mL and 50 µg/mL and 25 µg/mL | >50 µg/mL and 50 µg/mL |  | >50 µg/mL and 50 µg/mL |  | >50 µg/mL and 50 µg/mL and 25 µg/mL | 50 µg/mL and >50 µg/mL |  | 0.39 µg/mL and 0.20 µg/mL |  | 0.20 µg/mL and 0.39 µg/mL and 0.2 µg/mL |  | antimicrobial effect [13]: excellent antimicrobial effect |
| CCC1OC(=O)CCC(C)C(OC2OC(C)CC(N(C)C)C2O)C(CC=O)CC(C)C(=O)C=CC(C)=CC1CSc1ccccn1 (stereo not drawn) [MKT-3003] | <0.025 | 0.1 (≈ 0.152 µM) | <0.025 | <0.025 µg/mL | high anti-PRSP activity; also recorded: inhibited the growth of PRSP at remarkably low concentrations | <0.025 µg/mL | <0.025 | 1.56 µg/mL (≈ 2.37 µM) | 1.56 µg/mL (≈ 2.37 µM) | 50 (≈ 75.9 µM) | 50 µg/mL (≈ 75.9 µM) | <0.025 | 1.56 µg/mL (≈ 2.37 µM) | 1.56 µg/mL (≈ 2.37 µM) | <0.025 | <0.025 µg/mL | <0.025 | <0.025 µg/mL | <0.025 | MIC [1, 15]: <0.025 µg/mL; MIC [2, 17]: 0.1 µg/mL (≈ 0.152 µM); MIC [8, 27]: <0.025 µg/mL; MIC [12, 35]: <0.025 µg/mL |
| C=CCOCC1C=C(C)C=CC(=O)C(C)CC(CC=O)C(OC2OC(C)CC(N(C)C)C2O)C(C)CCC(=O)OC1CC (stereo not drawn) [MKT-3701] | 0.05 (≈ 0.0825 µM) | 0.05 (≈ 0.0825 µM) | 0.1 (≈ 0.165 µM) |  | high anti-PRSP activity | 0.2 µg/mL (≈ 0.33 µM) |  | 12.5 µg/mL (≈ 20.6 µM) |  | 3.13 (≈ 5.17 µM) |  | 0.05 (≈ 0.0825 µM) | 12.5 µg/mL (≈ 20.6 µM) |  | 0.1 (≈ 0.165 µM) |  | 0.1 (≈ 0.165 µM) |  | 0.05 (≈ 0.0825 µM) |  |
| CC[C@H]1OC(=O)CC[C@H](C)[C@@H](OC2OC(C)CC(N(C)C)C2O)[C@@H](CC=O)C[C@@H](C)C(=O)/C=C/C(C)=C/[C@@H]1COCOCc1ccccc1 (stereo partly drawn) [MKT-3703] |  |  |  |  | high anti-PRSP activity |  |  |  |  |  |  |  |  |  |  |  |  |  |  | MIC ([1]; Streptococcus pneumoniae, PRSP clinical isolate IMC B-1233, read-out: MIC): < 0.025 µg/mL; MIC ([2]; Streptococcus pneumoniae, PSSP clinical isolate IMC B-1229, read-out: MIC): 0.1 µg/mL (≈ 0.146 µM); MIC ([3]; Streptococcus pneumoniae, PRSP clinical isolate IMC B-0919, read-out: MIC): < 0.025 µg/mL; MIC ([5]; Streptococcus pneumoniae, PRSP clinical isolate IMC B-0920, read-out: MIC): 0.025 µg/mL (≈ 0.0364 µM); MIC ([6]; Streptococcus pneumoniae, PRSP clinical isolate IMC B-1235, read-out: MIC): 6.25 µg/mL (≈ 9.11 µM); MIC ([7]; Streptococcus pneumoniae, PRSP clinical isolate IMC B-1231, read-out: MIC): 6.25 µg/mL (≈ 9.11 µM); MIC ([8]; Streptococcus pneumoniae, PSSP clinical isolate IMC B-0921, read-out: MIC): < 0.025 µg/mL; MIC ([9]; Streptococcus pneumoniae, PRSP clinical isolate IMC B-1236, read-out: MIC): 12.5 µg/mL (≈ 18.2 µM); MIC ([10]; Streptococcus pneumoniae, PRSP clinical isolate IMC B-0922, read-out: MIC): < 0.025 µg/mL; MIC ([11]; Streptococcus pneumoniae, PRSP clinical isolate IMC B-1234, read-out: MIC): < 0.025 µg/mL; MIC ([12]; Streptococcus pneumoniae, PRSP clinical isolate IMC B-1232, read-out: MIC): < 0.025 µg/mL |
